What was measured:
[1] = system: cell lines that contain a variety of mutations that activate MAPK signaling; test: Cell-based anti-proliferative assays; details: cell lines with mutations that activate MAPK signaling
[2] = system: NSCLC-derived Calu-6 (KRAS Q61K); test: In vivo KRAS-mutant tumor model Calu-6; details: Calu-6 (KRAS Q61K) model, well-tolerated doses
NCI-H358 (KRAS G12C) = test: In vivo KRAS-mutant tumor model NCI-H358; details: well-tolerated doses
BRAF = BRAF (Homo sapiens, UniProt P15056); test: BRAF inhibition; assay type: biochemical
Sequence of BRAF (P15056 whole entry): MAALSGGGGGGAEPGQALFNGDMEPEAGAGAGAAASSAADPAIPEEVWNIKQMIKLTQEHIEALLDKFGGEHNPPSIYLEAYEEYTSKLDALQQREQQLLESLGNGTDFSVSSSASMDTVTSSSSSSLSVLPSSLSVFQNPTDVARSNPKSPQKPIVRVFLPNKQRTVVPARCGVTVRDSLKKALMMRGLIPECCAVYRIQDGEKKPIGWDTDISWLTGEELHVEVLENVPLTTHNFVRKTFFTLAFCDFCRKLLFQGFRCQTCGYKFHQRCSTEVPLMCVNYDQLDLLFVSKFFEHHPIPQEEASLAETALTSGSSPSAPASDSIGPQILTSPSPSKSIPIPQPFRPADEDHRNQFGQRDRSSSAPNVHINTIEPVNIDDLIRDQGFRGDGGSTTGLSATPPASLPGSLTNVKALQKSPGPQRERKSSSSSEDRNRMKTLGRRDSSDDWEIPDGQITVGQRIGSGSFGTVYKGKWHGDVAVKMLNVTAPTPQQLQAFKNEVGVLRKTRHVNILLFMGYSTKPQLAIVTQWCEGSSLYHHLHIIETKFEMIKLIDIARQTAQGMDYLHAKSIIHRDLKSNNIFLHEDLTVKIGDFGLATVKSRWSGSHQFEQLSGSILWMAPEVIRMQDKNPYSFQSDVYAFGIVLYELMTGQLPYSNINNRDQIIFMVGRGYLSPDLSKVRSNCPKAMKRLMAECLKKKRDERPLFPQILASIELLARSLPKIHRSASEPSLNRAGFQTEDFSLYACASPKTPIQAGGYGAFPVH

CRAF = CRAF (Homo sapiens, UniProt P04049); test: CRAF inhibition; assay type: biochemical
Sequence of CRAF (P04049 whole entry): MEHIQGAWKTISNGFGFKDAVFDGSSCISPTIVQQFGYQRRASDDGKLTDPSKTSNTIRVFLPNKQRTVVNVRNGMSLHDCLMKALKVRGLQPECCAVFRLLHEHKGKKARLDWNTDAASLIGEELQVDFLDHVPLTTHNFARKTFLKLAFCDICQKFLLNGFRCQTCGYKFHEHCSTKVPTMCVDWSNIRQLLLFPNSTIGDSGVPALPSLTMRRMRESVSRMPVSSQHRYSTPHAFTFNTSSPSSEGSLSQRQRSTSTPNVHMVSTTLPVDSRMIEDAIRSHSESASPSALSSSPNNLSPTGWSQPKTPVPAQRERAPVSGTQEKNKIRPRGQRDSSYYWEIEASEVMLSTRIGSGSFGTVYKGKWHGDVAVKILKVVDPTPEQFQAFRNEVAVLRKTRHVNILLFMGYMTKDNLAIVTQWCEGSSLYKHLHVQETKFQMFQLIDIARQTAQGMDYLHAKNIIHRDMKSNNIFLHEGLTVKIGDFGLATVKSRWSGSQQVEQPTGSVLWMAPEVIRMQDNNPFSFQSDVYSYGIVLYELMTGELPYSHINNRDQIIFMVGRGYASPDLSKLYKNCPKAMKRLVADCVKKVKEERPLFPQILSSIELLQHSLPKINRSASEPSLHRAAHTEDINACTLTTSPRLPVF

For `Cc1ccc(NC(=O)c2ccnc(C(F)(F)F)c2)cc1-c1cc(OCCO)nc(N2CCOCC2)c1` [Compound of formula (I)], the “anti-proliferative activity in cell lines” value [1] was “anti-proliferative activity”, the “tumor response in vivo” value [2] was “tumor regression” and the “tumor response in vivo” value (NCI-H358 (KRAS G12C)) was “tumor regression”. For the same compound, the “inhibition of BRAF” value (BRAF) was “potent inhibitors” and the “inhibition of CRAF” value (CRAF) was “potent inhibitors”.

— patent publication US20260216199A1, “RAF INHIBITOR AND KRAS G12C INHIBITOR COMBINATION THERAPY” (Erasca, Inc., priority 2023, published 2026)
